Experimental findings from patent US20260191853A1, “METHOD OF TREATING DRUG-INDUCED BRADYARRHYTHMIA” (OSAKA UNIVERSITY, priority 2022, published 2026) are described below.

Entries after “also recorded” stand apart in the source; their conditions may differ.

Experiment [1] deals with beagle dog. The experiment in a line: Therapeutic effect on verapamil-induced bradycardia in conscious beagle dog. The note with it: FIG. 10. Type of experiment: in vivo. As to the method: A peripheral venous path was secured with an 18 G needle in the right forelimb of a beagle dog (body weight: about 10 kg, female, available from Oriental Yeast Co., Ltd.), and then held on an operating table. Heart rate was monitored with an electrocardiographic monitor worn on the animal. A manchette was worn on the left forelimb, and blood pressure was measured with an Omron automatic electronic sphygmomanometer. The left ventricular function was measured by the M-mode method using the echocardiographic left parasternal short-axis two-chamber view. After stabilization of the heart rate, verapamil (intravenous injection of Vasolan, available from Eisai Co., Ltd.) was administered by continuous intravenous injection at a dose of 0.8 mg/kg/hour with a syringe pump. About 30 minutes after the initiation of administration, the dose was increased to 2.4 mg/kg/hour, and continuous infusion was continued. Since 2:1 atrioventricular block was continuously determined 17 minutes after an increase in the dose, the administration of verapamil was discontinued. Subsequently, saline and compound (I) dihydrochloride (0.01 mg/kg, 0.1 mg/kg, 1 mg/kg) were administered by bolus intravenous injection at 10-minute intervals. About 10 minutes after each administration, electrocardiogram, heart rate, blood pressure, and left ventricular function were measured and evaluated in a stable state. […]

Experiment [2] has as its target T1, KACh channel (Homo sapiens, UniProt P48544+P48549).
T1 sequence (P48549 1-501): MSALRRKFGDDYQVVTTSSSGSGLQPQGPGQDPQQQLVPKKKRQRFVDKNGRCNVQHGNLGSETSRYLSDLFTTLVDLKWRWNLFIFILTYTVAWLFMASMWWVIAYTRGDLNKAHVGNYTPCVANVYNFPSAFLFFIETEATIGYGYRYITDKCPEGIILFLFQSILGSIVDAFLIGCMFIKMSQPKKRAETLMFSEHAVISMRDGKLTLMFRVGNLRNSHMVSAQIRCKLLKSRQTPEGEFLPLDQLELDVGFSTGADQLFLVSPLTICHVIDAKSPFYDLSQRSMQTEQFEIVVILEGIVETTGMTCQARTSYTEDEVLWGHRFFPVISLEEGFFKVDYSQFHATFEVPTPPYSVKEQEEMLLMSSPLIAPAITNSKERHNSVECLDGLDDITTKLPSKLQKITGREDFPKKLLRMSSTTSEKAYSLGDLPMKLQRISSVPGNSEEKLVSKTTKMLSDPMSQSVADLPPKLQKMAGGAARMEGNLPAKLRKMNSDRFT
T1 sequence (P48544 1-419): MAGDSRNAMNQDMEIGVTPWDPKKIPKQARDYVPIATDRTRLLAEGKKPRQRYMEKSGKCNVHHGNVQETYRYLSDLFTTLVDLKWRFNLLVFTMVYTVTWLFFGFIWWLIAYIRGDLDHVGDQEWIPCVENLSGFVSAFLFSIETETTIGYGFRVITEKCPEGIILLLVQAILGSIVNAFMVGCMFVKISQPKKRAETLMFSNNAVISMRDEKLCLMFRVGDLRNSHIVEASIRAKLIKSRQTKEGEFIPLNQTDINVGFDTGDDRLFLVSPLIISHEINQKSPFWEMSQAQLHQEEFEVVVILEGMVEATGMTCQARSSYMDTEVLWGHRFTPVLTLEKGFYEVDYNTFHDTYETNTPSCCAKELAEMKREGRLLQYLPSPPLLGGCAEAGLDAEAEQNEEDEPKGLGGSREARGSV
The experiment in a line: KACh channel inhibitory action.

In experiment [3] the test system is Hartley guinea pigs. The experiment in a line: Effect on fingolimod-induced decrease in blood lymphocytes in guinea pig. Type of experiment: in vivo. To be noted: compound (I) 10 or 30 mg/kg oral gavage 30 min before fingolimod hydrochloride 0.1 mg/kg oral; 5 and 24 hours; FIG. 7. The protocol: Hartley guinea pigs (8 weeks old, male, available from Japan SLC, Inc.) were fasted for about 16 hours, and then a solvent or compound (I) (free form) was administered by oral gavage to each animal at a dose of 10 or 30 mg/kg (volume: 5 mL/kg). The solvent used was 0.5 w/v % methyl cellulose 400 solution (available from FUJIFILM Wako Pure Chemical Corporation). Thirty minutes after the administration, a solvent or fingolimod hydrochloride was administered by oral gavage to the animal at a dose of 0.1 mg/kg (volume: 5 mL/kg). The solvent used was saline (available from Otsuka Pharmaceutical Factory, Inc.). Blood was collected from the jugular vein, the subclavian vein, or the abdominal vena cava before administration of compound (I) and 5 and 24 hours after administration of fingolimod hydrochloride. Blood cell components were analyzed with a multi-item automatic blood cell counter (XN-1000, available from Sysmex Corporation). The plasma was collected by centrifuging the blood and cryopreserved at about −20° C. After thawing of the plasma, plasma drug concentrations were measured using LC/MS/MS after deproteinization with acetonitrile.
In FIG. 7, the measurements are shown as mean±standard error, and (I) denotes compound (I).

Experiment [4] deals with human iPS cell-derived atrial myocytes. Kind of experiment: Siponimod-induced decrease in beating rate in human iPS cell-derived atrial myocytes (multi-electrode array). The note with it: 0.1 μM compound (I) added after 0.1 μM siponimod, observed 10 minutes; FIG. 6. In kind it is cell-based. As to the method: Cryopreserved human iPS cell-derived atrial myocytes (Human iPSC-derived atrial cardiomyocytes, available from Axol Bioscience) were thawed and seeded at 1,400,000 cells/well on a fibronectin-coated 6-well plate, followed by culturing in an incubator at 37° C. and 5% CO2 for 11 days. During the culture, the entire amount of medium was changed every other day. After the elapse of 11 days, human iPS cell-derived atrial myocytes that started beating were removed from the plate and recovered with TrypLE Select Enzyme (available from ThermoFisher Scientific). The atrial myocytes were seeded at 25,000 cells/2 μL on a fibronectin-coated 6-well MEA Chip (60-6well MEA200/30iR-Ti-tcr, available from Multi Channel Systems) and cultured in an incubator at 37° C. and 5% CO2 for one hour. Thereafter, 400 μL of medium was added and cultured in an incubator at 37° C. and 5% CO2 for 13 days. During the culture, a half amount of the medium was changed every other day. After the elapse of […], the MEA Chip was set in a multi-electrode array system (MEA2100, available from Multi Channel Systems) to thereby obtain extracellular potentials under spontaneous beating. […] Data were analyzed with Labchart System (available from ADInstruments).
In FIG. 6, the measurements are shown as mean±standard error, and (I) denotes compound (I).

As for `Cc1cc(CO)nc2cc3c(cc12)OC(C)(C)[C@H](O)[C@H]3NCCc1ccccc1` [Compound (I), (3R,4S)-7-Hydroxymethyl-2,2,9-trimethyl-4-(phenethylamino)-3,4-dihydro-2H-pyrano[2,3-g]quinoline-3-ol], the “verapamil-induced bradyarrhythmia (2:1 atrioventricular block)” value in experiment [1] (0.1 mg/kg bolus i.v.) is on record as “exhibited a termination effect”; in experiment [1] (compound (I) dihydrochloride 0.01, 0.1, 1 mg/kg bolus i.v. after verapamil infusion up to 2.4 mg/kg/hour), “improved bradyarrhythmia; also recorded: recovery to 1:1 atrioventricular conduction”. Besides, the “KACh channel inhibitory action” value in experiment [2] is “has a KACh channel inhibitory action”. In experiment [3], the “effect on the peripheral blood lymphocyte decreasing action of fingolimod” value is listed as “does not inhibit”. Moreover, the “effect on siponimod-induced decrease in beating rate” value in experiment [4] is “increased the beating rate and improved bradyarrhythmia”.
